Reference: patent US20080200526A1, “Composition for the Prevention and Treatment of Allergic Inflammatory Disease” (priority 2004, published 2008)

Legend:
[1] = tested on: mouse models of ovalbumin-induced asthma; assay: Total count of leukocytes in blood and fractional calculation of leukocytes; format: in vivo; settings: 18 days; for Total leukocytes in blood: mean ± SD; for Basophils in blood / Eosinophils in blood / Lymphocytes in blood / Monocytes in blood / Neutrophils in blood: portion per 200 leukocytes
Protocol: (§1) The benzamidine compound of Chemical Formula 1 was assayed for therapeutic effect on allergic inflammation in mouse models of ovalbumin-induced asthma. Starting at the sensitization with ovalbumin, the administration of the benzamidine compound was for 18 consecutive days. The experimental animals were re-exposed to ovalbumin 15 days after the sensitization and then sacrificed 3 days after the re-exposure. Changes in lung weight, cellular components of peripheral blood and bronchoalveolar lavage fluid, and lung histopathology were observed.
(§2) A total of 20 female C57BL/6 mice (6-week-old, BioGenomics, Korea) was adapted to a laboratory environment for 6 days before being used in earnest experiments. While being housed at a density of five in a plastic cage, the experimental animals were bred in a breeding room with controlled temperature (20 to 25° C.) and humidity (30 to 35%). Under light-dark cycles of 12 hours, mice were allowed to have free access to feedstuff and tap water. While asthma was induced in 15 mice by ovalbumin, 5 mice were used as a non-treated group.
(§3) 100 mg and 200 mg of N-hydroxy-4-{5-[4-(5-isopropyl-2-methyl-1,3-thiazol-4-yl)phenoxy]pentoxy}-benzamidine were completely dissolved in 5 ml of sterilized distilled water. The benzamidine compound in the solutions was orally administered at doses of 100 mg and 200 mg per kg of body weight once a day from the day of the sensitization with ovalbumin. The control group was administered with equal volumes of sterilized distilled water in the same manner.
(§4) A solution of 200 μg of ovalbumin (Grade V; Sigma, St. Louis, Mo., USA) and 180 mg of aluminum hydroxide (Al(OH)3, dried powder gel; Aldrich, Milwaukee, USA) in 4 ml of physiological saline was allowed to stand at 4° C. overnight and was administered to the experimental animals (200 μl, abdominal injection) for sensitization. As for the non-treated group, a solution of only aluminum hydroxide in saline was injected. 15 days after sensitization, a 1.5% ovalbumin solution was sprayed in air using a nebulizer, followed by exposing the experimental animals to the spray for 10 min to induce asthma therein. The non-treated group was exposed only to saline in the same manner. All the experimental animals were sacrificed 3 days after the exposure.
On the final day of experiment, all the experimental animals were etherized and underwent laparotomy to expose the abdominal vena cava, from which 1 ml of blood was then taken. Using a hemocytometer, a blood sample was measured for total leukocyte counts in a ×10^3/1 mm^3 unit. Immediately after blood collection, the blood sample was smeared on slide glasses, fixed with methanol, and stained with Giemsa. And then, lymphocytes, eosinophils, neutrophils, monocytes, and basophils were calculated for their respective portions per 200 leukocytes and are represented as percentages in Table 3, below.

[2] = tested on: mouse models of ovalbumin-induced asthma; assay: Lung histopathological observation and histomorphology; format: in vivo; settings: for Alveolar Area (proportion of alveolar lumen in lung tissue) / Counts of goblet Cells Brochiole / Counts of goblet Cells Bronchus / Wall Thick. Brochiole / Wall Thick. Bronchus: 18 days, mean ± SD
Protocol: as §1, §2, §3, §4
The lungs removed after asthma induction were fixed in 10% neutral formalin and embedded in paraffin. The paraffin-embedded tissue was sliced at a thickness of 3 to 4 μm, stained with hematoxylin-eosin or Masson's trichrome and observed through an optical microscope.
From the lung tissue specimen prepared above, alveolar areas (proportion of alveolar lumen in lung tissue), populations of the goblet cells present in the bronchus and the bronchiole, and wall thicknesses of the bronchus and the bronchiole were examined using an analysis Image processing system (SIS Germany). The alveolar areas are represented as percentages, the populations of the goblets cells in the bronchus and bronchiole as counts per 1,000 cells, and the wall thickness of the bronchus and bronchiole in μm in Table 5.

[3] = tested on: mouse models of ovalbumin-induced asthma; assay: Fractional count of cellular components of bronchoalveolar lavage fluid; format: in vivo; settings: 18 days, mean ± SD
Protocol: as §1, §2, §3, §4
On the final day of experiment, secretions present in bronchi and alveola were examined for cytological constitution. To this end, after being etherized, the experimental animals were operated to open the cervical region and the thorax. The jugular vein was allowed to bleed, followed by endotracheal intubation. 3 ml of phosphate buffered saline was injected twice through the tube and the thorax was massaged for 30 sec to obtain cell suspension from the lungs. The cell suspension was centrifuged at 3000 rpm for 30 min and resuspended in DPBS (Gibco BRL, NY, USA). After the cell suspension was smeared on a slide glass, the cells were stained with Giemsa. A total count of the whole cells present in the smear and fractional counts of neutrophils, eosinophils, basophils, macrophages, and epithelioid cells were measured and are given in Table 4, below.

[4] = Change in body weight gain, mouse model of ovalbumin-induced asthma; format: in vivo; settings: mean ± SD, in g (unit assumed)
Protocol: as §1, §2, §3, §4
All the experimental animals were measured for body weight 1, 7, 14, 16 and 17 days after administration. In order to reduce difference among individuals due to feedstuff intake, all experimental animals were starved for 18 hours or more on the beginning day of the administration and on the sacrificing day before weight measurement. To minimize the difference of change in body weight of individual animals, body weight gains during time periods of the sensitization, the asthma induction after exposure and the whole experiment were calculated.

[5] = tested on: mouse models of ovalbumin-induced asthma; assay: Lung weight, mouse model of ovalbumin-induced asthma; format: in vivo; settings: 18 days, mean ± SD; for Lung Relative Wt.: percentage of body weight
Protocol: as §1, §2, §3, §4
On the final day of experiment, the lungs were separated from adjacent organs. The removed lungs were weighed in grams. To minimize errors due to the difference in body weight among individual animals, the relative weight of the lungs was calculated as a percentage of body weight using the following mathematic formula 1.

[6] = tested on: asthma; settings: clinical test, Lilly; Evans D J, Thorax 1996; cited from earlier work
[7] = tested on: bronchial asthma; settings: Sakurada T. et al., Eur J Pharmacol 1999, cited from earlier work

Structure (SMILES): Cc1nc(-c2ccc(OCCCCCOc3ccc(C(=N)NO)cc3)cc2)c(C(C)C)s1 [Cpd. of Formula 1, N-hydroxy-4-{5-[4-(5-isopropyl-2-methyl-1,3-thiazol-4-yl)phenoxy]pentoxy}-benzamidine]
- Total leukocytes in blood ([1]; 100 mg/kg orally once a day): 10.68 ± 1.76 ## ×10^3/1 mm^3
- Basophils in blood ([1]; 100 mg/kg orally once a day): 0.10 ± 0.20%
- Eosinophils in blood ([1]; 100 mg/kg orally once a day): 49.60 ± 15.79 %
- Lymphocytes in blood ([1]; 100 mg/kg orally once a day): 41.70 ± 12.90 %
- Monocytes in blood ([1]; 100 mg/kg orally once a day): 3.70 ± 1.60%
- Neutrophils in blood ([1]; 100 mg/kg orally once a day): 4.90 ± 2.90 %
- Total leukocytes in blood ([1]; 200 mg/kg orally once a day): 10.44 ± 1.81 ## ×10^3/1 mm^3
- Basophils in blood ([1]; 200 mg/kg orally once a day): 0.00 ± 0.00%
- Eosinophils in blood ([1]; 200 mg/kg orally once a day): 36.90 ± 8.33 # %
- Lymphocytes in blood ([1]; 200 mg/kg orally once a day): 53.80 ± 5.50 # %
- Monocytes in blood ([1]; 200 mg/kg orally once a day): 4.40 ± 1.70 %
- Neutrophils in blood ([1]; 200 mg/kg orally once a day): 5.20 ± 2.00 %
- Alveolar Area (proportion of alveolar lumen in lung tissue) ([2]; 100 mg/kg orally once a day): 55.53 ± 4.26 # percentages
- Counts of goblet Cells Brochiole ([2]; 100 mg/kg orally once a day): 53.80 ± 11.73 ## counts per 1,000 cells
- Counts of goblet Cells Bronchus ([2]; 100 mg/kg orally once a day): 317.60 ± 75.46 # counts per 1,000 cells
- Wall Thick. Brochiole ([2]; 100 mg/kg orally once a day): 27.73 ± 4.68 ## μm
- Wall Thick. Bronchus ([2]; 100 mg/kg orally once a day): 60.92 ± 8.53 # μm
- Alveolar Area (proportion of alveolar lumen in lung tissue) ([2]; 200 mg/kg orally once a day): 61.62 ± 6.93 # percentages
- Counts of goblet Cells Brochiole ([2]; 200 mg/kg orally once a day): 42.80 ± 10.69 # counts per 1,000 cells
- Counts of goblet Cells Bronchus ([2]; 200 mg/kg orally once a day): 256.80 ± 71.58 # counts per 1,000 cells
- Wall Thick. Brochiole ([2]; 200 mg/kg orally once a day): 24.79 ± 3.03 # μm
- Wall Thick. Bronchus ([2]; 200 mg/kg orally once a day): 40.69 ± 5.37 # μm
- Inflammatory cell populations in tissues around the primary bronchiole and alveola and around bronchial epithelia (FIG. 1) ([2]; compared to the control group, 100 and 200 mg/kg, optical microscope): reduction of the inflammatory cell population in the tissues in a dose-dependent pattern
- Basophils in bronchoalveolar lavage fluid ([3]; 100 mg/kg orally once a day): 0.50 ± 0.50%
- Epithelioids in bronchoalveolar lavage fluid ([3]; 100 mg/kg orally once a day): 21.00 ± 14.77%
- Lymphocytes in bronchoalveolar lavage fluid ([3]; 100 mg/kg orally once a day): 56.90 ± 15.04%
- Monocytes in bronchoalveolar lavage fluid ([3]; 100 mg/kg orally once a day): 3.10 ± 3.73%
- Neutrophils in bronchoalveolar lavage fluid ([3]; 100 mg/kg orally once a day): 17.50 ± 8.06 %
- eosinophils in bronchoalveolar lavage fluid ([3]; 100 mg/kg orally once a day): 4.30 ± 1.44 %
- Basophils in bronchoalveolar lavage fluid ([3]; 200 mg/kg orally once a day): 0.10 ± 0.22 %
- Epithelioids in bronchoalveolar lavage fluid ([3]; 200 mg/kg orally once a day): 15.50 ± 9.74%
- Lymphocytes in bronchoalveolar lavage fluid ([3]; 200 mg/kg orally once a day): 56.80 ± 22.52%
- Monocytes in bronchoalveolar lavage fluid ([3]; 200 mg/kg orally once a day): 3.50 ± 2.57%
- Neutrophils in bronchoalveolar lavage fluid ([3]; 200 mg/kg orally once a day): 13.90 ± 9.85%
- eosinophils in bronchoalveolar lavage fluid ([3]; 200 mg/kg orally once a day): 3.60 ± 2.88 %
- Body weight gain, Asthma induction period after exposure ([4]; 100 mg/kg orally once a day): 0.34 ± 0.34
- Body weight gain, Over whole experimental period ([4]; 100 mg/kg orally once a day): 2.68 ± 0.52
- Body weight gain, Sensitization period ([4]; 100 mg/kg orally once a day): 3.50 ± 0.51
- Body weight gain, Asthma induction period after exposure ([4]; 200 mg/kg orally once a day): 0.36 ± 0.59
- Body weight gain, Over whole experimental period ([4]; 200 mg/kg orally once a day): 2.90 ± 0.40
- Body weight gain, Sensitization period ([4]; 200 mg/kg orally once a day): 3.08 ± 0.71
- Lung Absolute Wt. ([5]; 100 mg/kg orally once a day): 0.128 ± 0.007 ## g
- Lung Relative Wt. ([5]; 100 mg/kg orally once a day): 0.697 ± 0.030 ## %
- Lung Absolute Wt. ([5]; 200 mg/kg orally once a day): 0.125 ± 0.008 # g
- Lung Relative Wt. ([5]; 200 mg/kg orally once a day): 0.682 ± 0.030 ## %

Structure (SMILES): CCCc1c(OCCCOc2cc(O)c(-c3ccc(F)cc3)cc2CC)cccc1Oc1ccccc1C(=O)O [LY293111]
- Effect in treating asthma [6]: ineffective in treating asthma

Structure (SMILES): COc1ccc(/C=C/CCCCOc2cccc(OCCCCC(=O)O)c2CCC(=O)O)cc1 [ONO-4057]
- Effect on bronchial asthma, in combination ([7]; in combination with the cysteinyl leukotriene receptor antagonist Zafirlukast): medicinal effect on bronchial asthma
- Effect on bronchial asthma, used alone ([7]; used alone): ineffective for the treatment thereof
